Measurements from PubChem BioAssay AID330 (DTP/NCI, 2004).
Values joined by “and” are separate entries in the source; they are usually repeats but may differ in a detail not shown here. Equal values may be shown once. Inconclusive results and toxic doses are left out. The calls were made as follows: active = survival T/C of 150% or more; inactive = T/C below 125% in these data.

Test system: P388 leukemia ip, CD2F1 mice, survival T/C
Experiment: NCI In Vivo Anticancer Drug Screen. Data for tumor model P388 Leukemia (intraperitoneal) in CD2F1 (CDF1) mice
Conditions: endpoint: median survival time, higher = longer survival
Procedure, shortened: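 Mice carrying the transplanted tumor received test compound or vehicle. Survival was recorded in each group, and the value is the treated-group measurement divided by that of the vehicle-treated control group.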

[1] = dose: 60.0 mg/kg/injection, schedule: Q01DX005 (ip), vehicle: Klucel (hydroxypropylcellulose) (HPC)
[2] = dose: 120.0 mg/kg/injection, schedule: Q01DX005 (ip), vehicle: Klucel (hydroxypropylcellulose) (HPC)
[3] = dose: 60.0 mg/kg/injection, schedule: Q01DX005 (ip), vehicle: saline with Tween-80
[4] = dose: 120.0 mg/kg/injection, schedule: Q01DX005 (ip), vehicle: saline with Tween-80
[5] = dose: 240.0 mg/kg/injection, schedule: Q01DX005 (ip), vehicle: saline with Tween-80
[6] = dose: 25.0 mg/kg/injection, schedule: Q01DX005 (ip), vehicle: Klucel (hydroxypropylcellulose) (HPC)
[7] = dose: 50.0 mg/kg/injection, schedule: Q01DX005 (ip), vehicle: Klucel (hydroxypropylcellulose) (HPC)
[8] = dose: 50.0 mg/kg/injection, schedule: Q01DX009 (ip), vehicle: saline with Tween-80
[9] = dose: 100.0 mg/kg/injection, schedule: Q01DX009 (ip), vehicle: saline with Tween-80
[10] = dose: 200.0 mg/kg/injection, schedule: Q01DX009 (ip), vehicle: saline with Tween-80
[11] = dose: 240.0 mg/kg/injection, schedule: Q01DX005 (ip), vehicle: Klucel (hydroxypropylcellulose) (HPC)
[12] = dose: 100.0 mg/kg/injection, schedule: Q01DX005 (ip), vehicle: Klucel (hydroxypropylcellulose) (HPC)
[13] = dose: 200.0 mg/kg/injection, schedule: Q01DX005 (ip), vehicle: Klucel (hydroxypropylcellulose) (HPC)
[14] = dose: 50.0 mg/kg/injection, schedule: Q01DX005 (ip), vehicle: saline with Tween-80
[15] = dose: 100.0 mg/kg/injection, schedule: Q01DX005 (ip), vehicle: saline with Tween-80
[16] = dose: 200.0 mg/kg/injection, schedule: Q01DX005 (ip), vehicle: saline with Tween-80

Measured: T/C

C(=N\Nc1ccccn1)/c1ccccn1.C(=N\Nc1ccccn1)/c1ccccn1.[Cl-].[Fe+3]
inactive: dose: 100.0 mg/kg/injection, schedule: Q01DX001 (ip), vehicle: saline with Tween-80 100 % of control | dose: 200.0 mg/kg/injection, schedule: Q01DX001 (ip), vehicle: saline with Tween-80 89 % of control

NC(=O)C1=Cc2cccn2-c2ccccc2S1
inactive: [1] 105 % of control | [2] 101 % of control

CC(C(=O)c1ccc(Cl)cc1)C1(O)C(=O)Nc2ccccc21 (stereo not drawn)
inactive: [3] 108 % of control | [4] 111 % of control | [5] 94 % of control

CCCCCCCCCCCCCC(CCCCCCCC)CCCCCCCC
inactive: dose: 50.0 mg/kg/injection, schedule: Q01DX001 (ip), vehicle: saline sonified 100 % of control | dose: 100.0 mg/kg/injection, schedule: Q01DX001 (ip), vehicle: saline sonified 113 % of control | dose: 200.0 mg/kg/injection, schedule: Q01DX001 (ip), vehicle: saline sonified 100 % of control

CC1(C)CC(=O)c2ccccc21
inactive: dose: 3.12 mg/kg/injection, schedule: Q01DX005 (ip), vehicle: saline with Tween-80 106 % of control | dose: 6.25 mg/kg/injection, schedule: Q01DX005 (ip), vehicle: saline with Tween-80 103 % of control | dose: 12.5 mg/kg/injection, schedule: Q01DX005 (ip), vehicle: saline with Tween-80 113 % of control | dose: 25.0 mg/kg/injection, schedule: Q01DX005 (ip), vehicle: saline with Tween-80 113 % of control

CC(=O)O[C@@H]1C(=O)C=C(C)[C@@H]2[C@@H](OC(=O)C=C(C)C)[C@H]3OC(=O)C[C@H]4[C@@H](C)[C@@H](O)[C@]5(O)OC[C@]34[C@H]5[C@@]12C
inactive: dose: 0.5 mg/kg/injection, schedule: Q01DX009 (ip), vehicle: distilled water + Tween-80 118 % of control | dose: 1.0 mg/kg/injection, schedule: Q01DX009 (ip), vehicle: distilled water + Tween-80 121 % of control
active: dose: 10.0 mg/kg/injection, schedule: Q01DX009 (ip), vehicle: distilled water + Tween-80 177 % of control

CCc1ccc(/C=C/C(=O)C(C)CN(C)C)cc1 (stereo not drawn)
inactive: dose: 60.0 mg/kg/injection, schedule: Q01DX005 (ip), vehicle: saline 105 % of control | dose: 120.0 mg/kg/injection, schedule: Q01DX005 (ip), vehicle: saline 118 % of control

CC(C)N(C(C)C)P1N(C(C)(C)C)N=NN1C(C)(C)C
inactive: dose: 12.5 mg/kg/injection, schedule: Q01DX005 (ip), vehicle: Klucel (hydroxypropylcellulose) (HPC) 102 % of control | [6] 100 % of control | [7] 102 % of control and 107 % of control

COC(=O)C1CC=CCC1C(=O)O (stereo not drawn)
inactive: [8] 93 % of control | [9] 95 % of control | [10] 99 % of control

CCOC(=O)/C=C/C(=O)NNS(=O)(=O)CCC(NC(=O)OCc1ccccc1)C(=O)OCc1ccccc1 (stereo not drawn)
inactive: dose: 12.5 mg/kg/injection, schedule: Q01DX009 (ip), vehicle: other 92 % of control | dose: 25.0 mg/kg/injection, schedule: Q01DX009 (ip), vehicle: other 101 % of control | dose: 50.0 mg/kg/injection, schedule: Q01DX009 (ip), vehicle: other 104 % of control | dose: 100.0 mg/kg/injection, schedule: Q01DX009 (ip), vehicle: other 93 % of control | dose: 200.0 mg/kg/injection, schedule: Q01DX009 (ip), vehicle: other 86 % of control

Nc1nc(SCc2cccc(Br)c2)c2ncn(C3OC(CO)C(O)C3O)c2n1 (stereo not drawn)
inactive: [8] 109 % of control | dose: 66.0 mg/kg/injection, schedule: Q01DX009 (ip), vehicle: saline with Tween-80 100 % of control | [10] 104 % of control

O=C1Nc2ccccc2C(=O)C1(O)c1ccccc1 (stereo not drawn)
inactive: [1] 105 % of control | [2] 103 % of control | [11] 94 % of control

COc1ccc2c(C(=O)O)cc3c4ccccc4ncc3c2c1
inactive: dose: 12.5 mg/kg/injection, schedule: Q01DX009 (ip), vehicle: distilled water + Tween-80 100 % of control | dose: 25.0 mg/kg/injection, schedule: Q01DX009 (ip), vehicle: distilled water + Tween-80 95 % of control | dose: 50.0 mg/kg/injection, schedule: Q01DX009 (ip), vehicle: distilled water + Tween-80 98 % of control | dose: 100.0 mg/kg/injection, schedule: Q01DX009 (ip), vehicle: distilled water + Tween-80 96 % of control | dose: 200.0 mg/kg/injection, schedule: Q01DX009 (ip), vehicle: distilled water + Tween-80 99 % of control

COC(=O)c1nc(=S)[nH]c(C(=O)OC)c1C(=O)c1c(C)[nH]c2ccccc12
inactive: [1] 98 % of control | [2] 96 % of control | [11] 95 % of control

O=C1OC(=O)C2C1C1C(c3ccccc3)=C(c3ccccc3)C2C2C(=O)OC(=O)C21 (stereo not drawn)
inactive: [3] 103 % of control | [4] 111 % of control | [5] 116 % of control

[N-]=[N+]=Nc1ccc(SN2C(=O)c3ccccc3C2=O)cc1
inactive: [3] 112 % of control | [4] 113 % of control | [5] 113 % of control

CC1CN(/C=C2\Cc3c(Cl)cccc3C2=O)CCN1c1ccc(Cl)cc1 (stereo not drawn)
inactive: dose: 100.0 mg/kg/injection, schedule: Q04DX002 (ip), vehicle: saline 100 % of control | dose: 200.0 mg/kg/injection, schedule: Q04DX002 (ip), vehicle: saline 102 % of control | dose: 400.0 mg/kg/injection, schedule: Q04DX002 (ip), vehicle: saline 100 % of control

CCn1cnc2sc3c(c2c1=O)CCCC3
inactive: [3] 97 % of control | [4] 98 % of control

NC1CCOC1=O (stereo not drawn)
inactive: dose: 50.0 mg/kg/injection, schedule: Q01DX005 (ip), vehicle: saline 100 % of control | dose: 100.0 mg/kg/injection, schedule: Q01DX005 (ip), vehicle: saline 103 % of control | dose: 200.0 mg/kg/injection, schedule: Q01DX005 (ip), vehicle: saline 100 % of control

O=C1C2CCCC1C(c1ccccc1)NC2c1ccccc1 (stereo not drawn)
inactive: [6] 104 % of control | [7] 102 % of control | [12] 96 % of control | [13] 98 % of control

Nc1nc2c(s1)CCC2
inactive: [8] 118 % of control | [9] 104 % of control | [10] 93 % of control

CC1CCC(SC2CC(=O)CCC2=O)CC1 (stereo not drawn)
inactive: [14] 104 % of control and 115 % of control | [15] 106 % of control and 115 % of control | [16] 122 % of control

N#CC1CC2C=CC1C2 (stereo not drawn)
inactive: dose: 5.0 mg/kg/injection, schedule: Q01DX009 (ip), vehicle: saline sonified 109 % of control | dose: 10.0 mg/kg/injection, schedule: Q01DX009 (ip), vehicle: saline sonified 109 % of control | dose: 20.0 mg/kg/injection, schedule: Q01DX009 (ip), vehicle: saline sonified 90 % of control

CCC[CH2][Sn]([CH2]CCC)([S]CC(=O)OC)[S]CC(=O)OC
inactive: dose: 1.56 mg/kg/injection, schedule: Q01DX001 (ip), vehicle: Klucel (hydroxypropylcellulose) (HPC) 110 % of control | dose: 3.12 mg/kg/injection, schedule: Q01DX001 (ip), vehicle: Klucel (hydroxypropylcellulose) (HPC) 111 % of control | dose: 6.25 mg/kg/injection, schedule: Q01DX001 (ip), vehicle: Klucel (hydroxypropylcellulose) (HPC) 96 % of control | dose: 12.5 mg/kg/injection, schedule: Q01DX001 (ip), vehicle: Klucel (hydroxypropylcellulose) (HPC) 106 % of control | dose: 25.0 mg/kg/injection, schedule: Q01DX001 (ip), vehicle: Klucel (hydroxypropylcellulose) (HPC) 115 % of control

Cc1cccc(Cl)c1NC(=O)CSCCN(C)C
inactive: [1] 106 % of control | [2] 103 % of control

CC(C)(C)/C=C/N=NNc1ccccc1C(=O)NC(C)(C)C
inactive: dose: 15.0 mg/kg/injection, schedule: Q01DX005 (ip), vehicle: Klucel + Tween-80 95 % of control | dose: 30.0 mg/kg/injection, schedule: Q01DX005 (ip), vehicle: Klucel + Tween-80 101 % of control | dose: 60.0 mg/kg/injection, schedule: Q01DX005 (ip), vehicle: Klucel + Tween-80 87 % of control and 89 % of control

O=C(CC(c1ccncc1)C(C(=O)c1ccc(Cl)cc1)C(c1ccncc1)C(C(=O)c1ccc(Cl)cc1)C(O)c1ccncc1)c1ccc(Cl)cc1 (stereo not drawn)
inactive: [14] 101 % of control | [15] 93 % of control | [16] 93 % of control

COC1(C)CC(c2ccccc2)=NO1 (stereo not drawn)
inactive: [3] 96 % of control | [4] 103 % of control | [5] 96 % of control

CC(C)(C)/C=C/N1N=NC(c2ccccc2)(c2ccccc2)C1=O
inactive: [7] 91 % of control | [12] 92 % of control | [13] 96 % of control

CC(C)(C(=O)O)c1csc(-c2ccc(Cl)cc2)n1
inactive: [14] 98 % of control | [15] 102 % of control | [16] 93 % of control
